Reference: ChEMBL document CHEMBL1201862, “PubChem BioAssay data set” (2004)
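Exposure lasted 48 hours, with cells grown in 96-well plates and compounds tested at five concentrations. At the GI50, growth is halved.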 Activity calls are given as the source filed them. Rule as the data show it: active = GI50 up to about 1.1 µM and inactive = higher.

What was measured:
Assay in all cases: NCI-60 cell line screen, 48 h
MCF7 = system: MCF7
COLO 205 = system: COLO 205
MOLT-4 = system: MOLT-4
OVCAR-5 = system: OVCAR-5
RXF 393 = system: RXF 393
SF-539 = system: SF-539
IGROV-1 = system: IGROV-1
HCC 2998 = system: HCC 2998
A498 = system: A498
SK-MEL-28 = system: SK-MEL-28
CAKI-1 = system: CAKI-1
Hs-578T = system: Hs-578T
RPMI-8226 = system: RPMI-8226
786-0 = system: 786-0
UO-31 = system: UO-31
BT-549 = system: BT-549
OVCAR-4 = system: OVCAR-4
SK-MEL-2 = system: SK-MEL-2
K562 = system: K562
HL-60 = system: HL-60

SMILES	GI50 (MCF7)	GI50 (COLO 205)	GI50 (MOLT-4)	GI50 (OVCAR-5)	GI50 (RXF 393)	GI50 (SF-539)	GI50 (IGROV-1)	GI50 (HCC 2998)	GI50 (A498)	GI50 (SK-MEL-28)	GI50 (CAKI-1)	GI50 (Hs-578T)	GI50 (RPMI-8226)	GI50 (786-0)	GI50 (UO-31)	GI50 (BT-549)	GI50 (OVCAR-4)	GI50 (SK-MEL-2)	GI50 (K562)	GI50 (HL-60)
CC1CC[C@@]2(OC1)O[C@H]1[C@H](O)[C@H]3[C@@H]4CC[C@H]5C[C@@H](OC6OC(CO)C(OC7OC(CO)C(O)C(OC8OCC(O)C(O)C8O)C7OC7OC(CO)C(O)C(O)C7OC7OC(CO)C(O)C(O)C7O)C(O)C6O)[C@H](O)C[C@]5(C)[C@H]4CC[C@]3(C)[C@H]1[C@@H]2C (stereo not given in full)	2.82 µM (inactive)	> 10 µM (inactive)	0.144 µM (active)	> 10 µM (inactive)	> 10 µM (inactive)	9.46 µM (inactive)	3.7 µM (inactive)	> 10 µM (inactive)	> 10 µM (inactive)	> 10 µM (inactive)	> 10 µM (inactive)	3.67 µM (inactive)	2.15 µM (inactive)	3.12 µM (inactive)	4.18 µM (inactive)	> 10 µM (inactive)	7.08 µM (inactive)	> 10 µM (inactive)	1.77 µM (inactive)	1.54 µM (inactive)
CC1=C(C)SC(=C2Sc3c(n(C)c(=O)n(C)c3=O)S2)S1	> 100 µM (inactive)	89.9 µM (inactive)	> 100 µM (inactive)	> 100 µM (inactive)	48.4 µM (inactive)	13.2 µM (inactive)	59.2 µM (inactive)	> 100 µM (inactive)	27.4 µM (inactive)	> 100 µM (inactive)	64.3 µM (inactive)	61.4 µM (inactive)	> 100 µM (inactive)	17.4 µM (inactive)	59 µM (inactive)	57.1 µM (inactive)	21.4 µM (inactive)	22.3 µM (inactive)	62.7 µM (inactive)	> 100 µM (inactive)
CCOC(=O)/C(=C\NCc1ccc2c(c1)OCO2)c1nc2ccccc2[nH]1	59.8 µM (inactive)	32.7 µM (inactive)	30.5 µM (inactive)	94.8 µM (inactive)	> 100 µM (inactive)	35.4 µM (inactive)	40.3 µM (inactive)	42.7 µM (inactive)	> 100 µM (inactive)	60.7 µM (inactive)	> 100 µM (inactive)	56.8 µM (inactive)	25.5 µM (inactive)	36.9 µM (inactive)	79.4 µM (inactive)	83.4 µM (inactive)	57.3 µM (inactive)	48.4 µM (inactive)	52.2 µM (inactive)	48.8 µM (inactive)
Oc1ccccc1CNCc1nc2ccccc2[nH]1	> 100 µM (inactive)	29.7 µM (inactive)	65.5 µM (inactive)	> 100 µM (inactive)	75 µM (inactive)	> 100 µM (inactive)	> 100 µM (inactive)	> 100 µM (inactive)	> 100 µM (inactive)	> 100 µM (inactive)	69.3 µM (inactive)	> 100 µM (inactive)	17.7 µM (inactive)	26.1 µM (inactive)	11.2 µM (inactive)	75.7 µM (inactive)	> 100 µM (inactive)	> 100 µM (inactive)	51.2 µM (inactive)	40.9 µM (inactive)
Cc1oc2c(c1C(=O)c1ccccc1)C(=O)c1ccccc1C2=O	4.07 µM (inactive)	13.9 µM (inactive)	2.47 µM (inactive)	15.2 µM (inactive)	3.48 µM (inactive)	10.6 µM (inactive)	4.99 µM (inactive)	15.5 µM (inactive)	19.7 µM (inactive)	11.1 µM (inactive)	4.23 µM (inactive)	4.57 µM (inactive)	2.85 µM (inactive)	4.38 µM (inactive)	9.75 µM (inactive)	6.19 µM (inactive)	3.21 µM (inactive)	3.26 µM (inactive)	2.23 µM (inactive)	2.28 µM (inactive)
NC(=S)NN=C1Cc2ccccc2C1	> 100 µM (inactive)	> 100 µM (inactive)	> 100 µM (inactive)	> 100 µM (inactive)	> 100 µM (inactive)	> 100 µM (inactive)	> 100 µM (inactive)	> 100 µM (inactive)	> 100 µM (inactive)	> 100 µM (inactive)	> 100 µM (inactive)	> 100 µM (inactive)	> 100 µM (inactive)	> 100 µM (inactive)	> 100 µM (inactive)	> 100 µM (inactive)	> 100 µM (inactive)	> 100 µM (inactive)	> 100 µM (inactive)	> 100 µM (inactive)
COC(=O)/C=C\C(C#N)(C#N)/N=C/c1ccc(C)cc1	1.67 µM (inactive)	1.97 µM (inactive)	0.778 µM (active)	19.7 µM (inactive)	1.9 µM (inactive)	4.38 µM (inactive)	13.1 µM (inactive)	18.2 µM (inactive)	17.7 µM (inactive)	5.5 µM (inactive)	2.59 µM (inactive)	20.5 µM (inactive)	0.586 µM (active)	1.6 µM (inactive)	2.49 µM (inactive)	5.02 µM (inactive)	3.89 µM (inactive)	16.3 µM (inactive)	3.04 µM (inactive)	2.52 µM (inactive)
Oc1ccc2ccccc2c1-c1c(Nc2ccccc2)ccc2ccccc12	13 µM (inactive)	19.9 µM (inactive)	17.7 µM (inactive)	16.3 µM (inactive)	17.2 µM (inactive)	14 µM (inactive)	5.73 µM (inactive)	14 µM (inactive)	18.1 µM (inactive)	13.9 µM (inactive)	14.9 µM (inactive)	19.9 µM (inactive)	17.8 µM (inactive)	17.8 µM (inactive)	15.7 µM (inactive)	16.3 µM (inactive)	12.3 µM (inactive)	17.2 µM (inactive)	13.7 µM (inactive)	19.5 µM (inactive)
CC1(C)C2CCC(=O)C1C(OCc1ccccc1)C2 (stereo not given)	> 100 µM (inactive)	> 100 µM (inactive)	> 100 µM (inactive)	> 100 µM (inactive)	> 100 µM (inactive)	> 100 µM (inactive)	> 100 µM (inactive)	> 100 µM (inactive)	> 100 µM (inactive)	> 100 µM (inactive)	24.1 µM (inactive)	> 100 µM (inactive)	> 100 µM (inactive)	> 100 µM (inactive)	> 100 µM (inactive)	94 µM (inactive)	> 100 µM (inactive)	> 100 µM (inactive)	96.4 µM (inactive)	67.3 µM (inactive)
